Results from article PMC12049818, “Identification of NUV-244 as a PNPLA3 I148M degrading small molecule” (iScience, 2025).

Target: T1, PNPLA3 I148M-tagRFP (Homo sapiens, UniProt Q9NST1, I148M)
T1 construct: host or cells: Huh7
T1 sequence (Q9NST1 1-481 I148M): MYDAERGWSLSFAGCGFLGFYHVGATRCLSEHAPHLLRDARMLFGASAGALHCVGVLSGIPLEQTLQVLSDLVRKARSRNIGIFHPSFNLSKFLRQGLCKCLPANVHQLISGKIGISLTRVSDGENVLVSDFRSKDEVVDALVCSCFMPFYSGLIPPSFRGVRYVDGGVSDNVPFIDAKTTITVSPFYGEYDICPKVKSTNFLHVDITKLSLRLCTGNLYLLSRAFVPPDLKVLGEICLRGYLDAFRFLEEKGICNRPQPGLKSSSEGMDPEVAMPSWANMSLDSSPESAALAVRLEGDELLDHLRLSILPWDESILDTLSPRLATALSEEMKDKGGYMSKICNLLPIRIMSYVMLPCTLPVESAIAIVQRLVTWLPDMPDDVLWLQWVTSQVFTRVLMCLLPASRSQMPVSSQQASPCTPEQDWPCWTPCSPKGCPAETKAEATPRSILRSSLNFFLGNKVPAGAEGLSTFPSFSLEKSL
Test: Time-lapse imaging of PNPLA3 I148M-tagRFP on lipid droplets in Huh7 cells
Type: cell-based
Experimental: To evaluate the kinetics of NUV-244 mediated reduction and degradation of PNPLA3 I148M-tagRFP, we performed time-lapse studies to follow PNPLA3 I148M-tagRFP over time (Figures 5A and 5B). 1μM or 5μM NUV-244 leads to rapid onset of reduction of PNPLA3 I148M-tagRFP on lipid droplets with half maximum effect reached after approximately 2h. To evaluate if PNPLA3 I148M-tagRFP degradation is 26S proteasome dependent, 1μM Bortezomib was co-incubated with NUV-244. Proteasome inhibition prevents PNPLA3 I148M-tagRFP reduction from lipid droplets (Figures 5A and 5B). […] A recent paper identified the E3 ligase responsible for the turnover of endogenous PNPLA3, the ER associated E3 ligase BFAR.[18]
Huh7 cells expressing PNPLA3 I148M-tagRFP were seeded at 4000 cells/well in 30 μL media in 384-well imaging plates (Revvity, PhenoPlate) and stored in a 37°C incubator with 5% CO2 and 95% humidity overnight. Cells were then incubated with Bodipy diluted in growth medium (38nM final concentration) for 1h at 37°C with 5% CO2 and 95% humidity. Cells were treated with DMSO control, 1 μM or 5 μM NUV-244, with or without 1 μM Bortezomib or 5 μM MLN7243. Cells were imaged every 15 minutes over a 20-hour period using an Opera Phenix confocal spinning disc microscope system (Revvity) with a 20x water objective at 561 nm (tagRFP) and 488 nm (BODIPY). Images were analyzed using Harmony software. PNPLA3 I148M-tagRFP intensity on lipid droplets was quantified and compared between treatments.

Structure (SMILES) | effect of co-treatment on NUV-244 induced decrease of PNPLA3 I148M-tagRFP on lipid droplets (1μM co-treatment with 1μM or 5μM NUV-244) | effect of co-treatment on NUV-244 induced decrease of PNPLA3 I148M-tagRFP on lipid droplets (5μM co-treatment with 1μM or 5μM NUV-244)
CC(C)C[C@H](NC(=O)[C@H](Cc1ccccc1)NC(=O)c1cnccn1)B(O)O [Bortezomib] | rescue of degradation | –
NS(=O)(=O)OC[C@H]1C[C@@H](Nc2ccnc3cc(-c4cccc(SC(F)(F)F)c4)nn23)[C@H](O)[C@@H]1O [MLN7243] | – | rescue of degradation
